A value given as a limit tells only on which side of the number the result lay.

What is called melting point is the temperature of the solid-liquid transition. For the molecule `Cc1[nH]cnc1CSCCNc1ncc(Cc2ccc(Cl)cc2)c(=O)[nH]1`, the melting point lay in the range of 204 to 206 °C.
Then `NC(=O)c1ccc(C(F)(F)F)nc1N`, with 227 to 229 °C; and `Cc1oc(-c2ccccc2)nc1CCOc1ccc(CC2SC(=O)NC2=O)c2ccccc12` (stereo unspecified), with 188 to 191 °C; and `COC(=O)c1scc(Cl)c1O`, with 78 °C.
Molecule `O=C(O)c1ccccc1NC(=S)Cc1ccccc1` gave a melting point of 166 to 167 °C.
To `NC(=O)CN(N=O)N1CCOCC1` belongs 134 to 136 °C; to `Cc1cnc(C)c(NCCc2c[nH]cn2)n1`, 164 to 165 °C.
To `CCCCCC(CC(=O)Nc1cc(C(=O)NC(=O)C(C)(C)C)ccc1C(C)(C)C)c1ccc(OC)cc1OC` (stereo unspecified) belongs 170 to 172 °C; to `CCOC(=O)ON(C(=O)NC)c1cc(Cl)ccc1Cl`, 130 to 132 °C; to `COCC(=O)c1ccc(Br)nc1`, 110 to 112 °C.
`COc1ncncc1NS(=O)(=O)c1cccc(Cl)c1Cl`: the melting point was in the range of 204 to 211 °C.
To `CCCCCCCCc1c(CCC)nc2ncnn2c1N` belongs 165 °C; to `O=C(Nc1cccc(S(=O)(=O)C(F)(F)F)c1)c1ccc2ccccc2c1O`, 194 to 195 °C.
To `COC(=O)CCc1ccc(CNC(=O)C2Cc3ccccc3N2S(=O)(=O)c2ccc(-c3cccc(C(F)(F)F)c3)cc2)cc1` (stereo unspecified) belongs 61 °C; to `CN(C)[C@H]1CC[C@H](Nc2ncc3ncnc(Nc4ccc(OCc5ccccc5)cc4)c3n2)CC1`, 155 °C; to `NC1=Nc2ccc(OC(F)(F)F)cc2CS1`, 115 to 118 °C.
To `Nc1nc2c3ccccc3ccn2n1` belongs 164 to 165 °C; to `COc1cc2c(cn1)C(=O)N(C(C)C)C2=O`, 150 to 152 °C; to `CCCSc1nc(Br)c(Br)n1Cc1cc2c(cc1Cl)OCO2`, 116 °C.
In the case of `CNC(=O)c1ccccc1Nc1nc(Nc2ccc3c(c2)CCC(NCC(F)(F)F)CC3)ncc1Cl` (stereo unspecified), the melting point fell in the range of 202 to 203 °C.
For the molecule `Cc1cc(N)nc(CCc2nc3cc(-c4ccc(S(=O)(=O)N5CCCC5)cc4)cnc3[nH]2)c1`, the melting point came to 171 °C.
Consider `CCOC(=O)CC(=O)N(C)c1ccccc1N`, for which the melting point lay within 63 to 64 °C.
Then `Cc1ccc(C(=O)NC(C)(C(N)=O)C(C)C)cc1` (stereo unspecified), with 145 to 152 °C; and `O=Cc1csc(NCc2ccccc2)n1`, with 162 to 165 °C; and `COc1cc(Br)cc(C23CC4CC(CC(C4)C2)C3)c1O`, with 157 to 159 °C.
To `Cn1c(C(F)(F)F)cc(=O)n(-c2cc(OCCCl)c(Cl)cc2F)c1=O` belongs 100 to 103 °C; to `Cc1ccc(S(=O)(=O)NCCN2C(=O)C3(CCCC3)c3ccccc32)cc1`, 60 °C.
As to `COc1cn(-c2cccc(C(F)(F)F)c2)nc(C(C)=O)c1=O`, the melting point lay in the range of 155 to 156 °C.
To `CCOc1ccccc1OC(Cc1ccccc1)C1=NCCN1` (stereo unspecified) belongs 95 to 97 °C; to `Cc1cccc(Cl)c1-n1[nH]c(C(C)C)c2c(=O)nc(Cc3ccc(N)cc3)nc1-2`, 206 to 207 °C.
To `CC(=O)N1CCN(c2c([N+](=O)[O-])cc([N+](=O)[O-])cc2C(F)(F)F)CC1` belongs 126 °C; to `CCOC(=O)c1cc(NCc2ccccc2)c(Oc2ccccc2)c(S(=O)(=O)N(C)C)c1`, 154 to 155 °C; to `O=c1ccc(-c2cc(F)c(OC3CCN(C4CCC4)CC3)c(F)c2)n[nH]1`, 195 to 197 °C.
Then `COC(=O)c1ccc2[nH]c(/C=C/c3ccc(OC)c(OC)c3)nc2c1`, with 185 to 188 °C.
Molecule `ClCSc1c(Cl)c(Cl)cc(Cl)c1Cl` displayed a melting point of 81 to 82 °C.
To `CC(C)c1cccc(CCCn2ccnc2)c1NC(=O)CC1c2ccccc2Oc2ccccc21` belongs 194 to 195 °C.
Then `CSCCn1nc(O)c2[nH]c3cc(Cl)ccc3c(=O)c2c1=O`, with 275 to 277 °C; and `COC(=O)CN(C)CCNC(=O)c1nc(Cl)c(N)nc1N`, with 132 to 134 °C; and `O=C(CCl)Nc1ccc2c(c1NC(=O)COc1ccccc1)C(=O)c1ccccc1C2=O`, with 217 to 218 °C.
Then `CCC1(O)CC(=O)OCc2c1cc1n(c2=O)Cc2c-1nc1cc(F)ccc1c2-c1ccccc1` (stereo unspecified), with more than 250 °C.
`Cc1nn(C)c(NCC(C)(C)C)c1N=O` had a melting point of 83 to 84 °C.
Then `Clc1ccc2c(c1)C(c1ccccc1Cl)=CCc1nnc(Br)n1-2`, with 234 °C; and `O=c1cc(-c2ccccc2)c2c(OCc3nnn[nH]3)cc(OCc3nnn[nH]3)cc2o1`, with 222 to 224 °C; and `O=c1cccccc1N1CCN(CCO)CC1`, with 85 to 86 °C.
Then `CC(COc1ccc2c(c1)CC/C(=C\c1cccs1)C2=O)n1ccnc1` (stereo unspecified), with 160 to 162 °C; and `CSc1nnc(-c2ccccc2)n1C`, with 134 to 135 °C.
Then `COc1cc2c(cc1O)C1Cc3c(Cl)cc(OC)c(OCC(=O)O)c3CN1CC2` (stereo unspecified), with 172 to 174 °C.
In the case of `O=C(Nc1ccc(-n2nc(-c3cccnc3)cc2C(F)F)cc1)c1ccncc1F`, the melting point lay in the range of 176 to 178 °C.
To `COc1ccc(S(=O)(=O)N2CC(C)(C)CN(S(=O)(=O)c3ccc(OC)cc3)C2C(=O)NO)cc1` belongs 125 to 126 °C; to `O=C1NC(=O)C2(CCS(=O)(=O)c3ccccc32)N1` (stereo unspecified), 280 to 281 °C.
On to `C(=C\c1nc(COc2ccc(Cn3cnnc3)cc2)co1)/c1ccccc1`, for which the melting point lay within 209 to 210 °C.
Then `C=CCNc1nc(NCCCCCCC)c2scc(C)c2n1`, with 56 to 57 °C; and `Oc1nc(-c2ncccn2)nc(O)c1-c1cccs1`, with 244 to 246 °C.
Then `CCOC(=O)CCC(=O)Oc1cc([N+](=O)[O-])cc([N+](=O)[O-])c1OC(=O)CCC(=O)OCC`, with 60 to 63 °C; and `CCOc1cc2c(Nc3ccc(Sc4nccn4C)c(Cl)c3)c(C#N)cnc2cc1N1CCC(N2CCCC2)CC1`, with 203 to 207 °C; and `CC(=Cc1ccccc1Br)c1ccc2c(c1)C(C)(C)CCC2(C)C`, with 116 to 117 °C.
Then `CC1CC(=O)CCC1c1ccccc1` (stereo unspecified), with 71.5 to 72.5 °C; and `Cc1cc(CO)nc2cc3c(cc12)OC(C)(C)[C@H](O)[C@H]3NCCc1ccc(F)cc1` (relative stereo), with 147 to 152 °C.
In turn, `CCOC(=O)c1c(Nc2cccc(SC)c2)n[nH]c1C` showed a melting point of 192 to 194 °C.
Then `CN1CCC(c2n[nH]c3cc(Cl)ccc23)CC1`, with 211 to 213 °C.
To `O=C1c2ccccc2C(=O)N1Cc1cc(F)ccc1[N+](=O)[O-]` belongs 198 to 200 °C; to `O=C(c1ccccc1)c1cc2ccccc2o1`, 88 to 90 °C.
To `CC(C)(C)OC(=O)N[C@H]1CC[C@H](CCN2CCN(c3cccc(Cl)c3Cl)CC2)CC1` belongs 150 to 154 °C; to `Cc1nn(CCBr)c(=O)c2ccccc12`, 102 to 103 °C.
Molecule `Oc1nc(-c2ccc(F)cc2)c(CCN2CCC(=Cc3cccc(F)c3)CC2)s1` gave a melting point of 140 to 142 °C.
In turn, `O=C(NCc1ccc(C(F)(F)F)c(F)c1)Nc1cccc2[nH]ccc12` gave a melting point of 198 °C.
Take `COC(=O)CCCc1cc2nc(Cl)ccc2n1S(=O)(=O)c1ccc2nc(C)sc2c1`: the melting point amounted to 117 °C.
To `CCc1nn(-c2ccc(F)cc2)c2cc(C3=CCC(C(=O)O)CC3)ccc12` (stereo unspecified) belongs 214 to 216 °C; to `CCCCCCCNC(=O)Nc1ccccc1C(=O)Nc1cccnc1`, 144 °C; to `Cn1cc(C#N)c(=O)c(-c2cccc(C(F)(F)F)c2)c1`, 228 to 229 °C.
Molecule `OCCN(CCO)Cc1nnc2n1-c1ccc(Cl)cc1C(c1ccccc1)=NC2` displayed a melting point of 84 to 87 °C.
To `Nc1nc2c(c3c1ncn3Cc1cc(-c3ccc(F)cc3)no1)NCCC2` belongs 227 to 228 °C; to `CCCCCCCCCCCCC#CC#CCCCCCCCC(C(N)=O)C(C)c1ccccc1` (stereo unspecified), 65.5 to 66.5 °C.
Then `Cc1ccccc1-c1ccc2c(c1)CN(CCNC(=O)C1CCCC1)C(N)=N2`, with 43 to 46 °C.
To `CCO/C=C/C(=O)Nc1cccc(Cl)c1OC` belongs 98 to 99 °C; to `CN(CCCCCCCNC(=NCCCOc1cccc(CN2CCCCC2)c1)NC#N)CCN(Cc1ccc(F)cc1)c1ccccn1`, 96 to 98 °C.
In turn, `COC(=O)C1=C(C)NC2=C(C(=O)OC2)C1c1ccccc1C` (stereo unspecified) returned a melting point of 224 to 225 °C.
As for `CN(C)c1ccccc1SCC(N)=NO`, the melting point was 133 °C.
Then `Cc1nnc(-c2ccnc(Nc3ccc(S(C)(=O)=O)cc3)c2)o1`, with 244 to 245 °C; and `CNC(=S)NCCCCc1nc[nH]c1C`, with 110 to 112 °C; and `O=C1C(=O)N2CCOc3c(Cl)c(Cl)cc1c32`, with 237 to 238 °C.
To `O=C(O)c1cccc(-n2c(-c3ccc(Br)cc3)cc3c2CCCC3)c1` belongs 242 to 244 °C.
To `CC1(C)CC(=O)Nc2cc(C(=O)Nc3ccccc3)ccc21` belongs 249 to 251 °C; to `O=C(O)C(OCOc1ccc(-c2ccc(Cl)cc2)cc1)(C(F)(F)F)C(F)(F)F`, 134 to 135 °C.
`O=C(c1cc(Br)cc(Br)c1)c1cc(Br)cc(Br)c1` registered a melting point of 208 to 209 °C.
Then `CCc1cccc(C)c1CNc1cc(C(=O)N(C)C)nc2c(CO)c(C)[nH]c12`, with 280 °C.
To `O=S(=O)(c1ccc(Br)cc1)N1CCNCC1` belongs 102 to 104 °C.
Then `CSC(=NC(C)=O)N(C)N=Cc1ccccc1`, with 102 to 104 °C; and `Cc1ccc2cccc(OCc3c(Cl)ccc(S(=O)(=O)N4CCC[C@H]4C(=O)NCCCNC(=O)c4ccc(C(N)=NO)cc4)c3Cl)c2n1`, with 120 to 124 °C; and `CCCCCCCN(CCOCCSc1nc(-c2ccc(OC)cc2)c(-c2ccc(OC)cc2)[nH]1)C(=O)NC(C)C`, with 85 to 87 °C.
As to `O=C1c2cc([N+](=O)[O-])ccc2SC12CC2`, the melting point was in the range of 126 to 128 °C.

The values are drawn from a melting point compilation (Tetko et al.; mined from patent text by program, amines drawn as free bases though some values may be those of a salt).
